Experimental data as given in US9421209B2, “Kinase modulators” (Rhizen Pharmaceuticals SA, priority 2009, dated 2016).
Like-named read-outs stand apart in the source and are kept apart here.

Key:
P110 δ/Pi3K δ = P110 δ/Pi3K δ (Homo sapiens, UniProt O00329); assay: Fluorescent (HTRF) determination of PI3K enzyme activity, δ isoform; type: biochemical; set-up: inhibition: dose or concentration left out as unconfirmed
Summary of the method: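 IC50 fitted from percent inhibition relative to blank and enzyme-only wells. Human PI3Kδ converts PIP2 to PIP3 after addition of 400 μM ATP solution, 30 min at room temperature. Product read by time-resolved FRET after stop and 6–18 h dark incubation with detection reagents.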

P110α = P110α (Homo sapiens, UniProt P42336); assay: Fluorescent (HTRF) determination of PI3K enzyme activity, α isoform; type: biochemical
Source text: (§1) Assay 1: Fluorescent determination of PI3Kinase Kinase enzyme activity
(§2) Phosphoinositide 3 kinases (PI3K) belong to a class of lipid kinases that play a critical role in the regulation of several key cellular processes. The PI3K are capable of phosphorylating the 3-hydroxy position of phosphoinositols thereby generating second messengers involved in downstream signalling events. The homogenous time resolved fluorescence (HTRF) assay allows detection of 3,4,5-triphosphate (PIP3) formed as a result of phosphorylation of phosphotidylinositol 4,5-biphosphate (PIP2) by PI3K isoforms such as α, β, γ or δ.
(§3) PI3K isoform activity for α, β, γ or δ was determined using a PI3K human HTRF™ Assay Kit (Millipore, Billerica, Mass.) with modifications. All incubations were carried out at room temperature. Briefly, 0.5 μl of 40× inhibitor (in 100% DMSO) or 100% DMSO were added to each well of a 384-well black plate (Greiner Bio-One, Monroe, N.C.) containing 14.5 μl 1× reaction buffer/PIP2 (10 mM MgCl2, 5 mM DTT, 1.38 μM PIP2) mix with or without enzyme and incubated for 10 min. After the initial incubation, 5 μl/well of 400 μM ATP was added and incubated for an additional 30 minutes. Reaction was terminated by adding 5 μl/well stop solution (Millipore, Billerica, Mass.). Five microliters of detection mix (Millipore, Billerica, Mass.) were then added to each well and was incubated for 6-18 h in the dark. HRTF ratio was measured on a microplate reader (BMG Labtech., Germany) at an excitation wavelength of 337 nm and emission wavelengths of 665 and 620 nm with an integration time of […]. Data were analyzed using Graphpad Prism (Graphpad software; San Diego Calif.) for IC50 determination. Percent inhibition was calculated based on the values for the blank and enzyme controls. The results are provided below in Table 2 & 3.

P110γ = P110γ (Homo sapiens, UniProt P48736); assay: Fluorescent (HTRF) determination of PI3K enzyme activity, γ isoform; type: biochemical
Source text: as §1, §2, §3

P110β = P110β (Homo sapiens, UniProt P42338); assay: Fluorescent (HTRF) determination of PI3K enzyme activity, β isoform; type: biochemical
Summary of the method: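 Recombinant human PI3K isoforms incubated 10 min at room temperature with inhibitor and 1.38 μM PIP2 (10 mM MgCl2, 5 mM DTT), then 30 min after adding 400 μM ATP stock. PIP3 formation detected by HTRF (665/620 nm); % inhibition versus blank and enzyme controls gives IC50.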

[1] = read-out: P110 δ/Pi3K δ IC 50 nM

Chain of P110γ (P48736 whole entry, canonical isoform): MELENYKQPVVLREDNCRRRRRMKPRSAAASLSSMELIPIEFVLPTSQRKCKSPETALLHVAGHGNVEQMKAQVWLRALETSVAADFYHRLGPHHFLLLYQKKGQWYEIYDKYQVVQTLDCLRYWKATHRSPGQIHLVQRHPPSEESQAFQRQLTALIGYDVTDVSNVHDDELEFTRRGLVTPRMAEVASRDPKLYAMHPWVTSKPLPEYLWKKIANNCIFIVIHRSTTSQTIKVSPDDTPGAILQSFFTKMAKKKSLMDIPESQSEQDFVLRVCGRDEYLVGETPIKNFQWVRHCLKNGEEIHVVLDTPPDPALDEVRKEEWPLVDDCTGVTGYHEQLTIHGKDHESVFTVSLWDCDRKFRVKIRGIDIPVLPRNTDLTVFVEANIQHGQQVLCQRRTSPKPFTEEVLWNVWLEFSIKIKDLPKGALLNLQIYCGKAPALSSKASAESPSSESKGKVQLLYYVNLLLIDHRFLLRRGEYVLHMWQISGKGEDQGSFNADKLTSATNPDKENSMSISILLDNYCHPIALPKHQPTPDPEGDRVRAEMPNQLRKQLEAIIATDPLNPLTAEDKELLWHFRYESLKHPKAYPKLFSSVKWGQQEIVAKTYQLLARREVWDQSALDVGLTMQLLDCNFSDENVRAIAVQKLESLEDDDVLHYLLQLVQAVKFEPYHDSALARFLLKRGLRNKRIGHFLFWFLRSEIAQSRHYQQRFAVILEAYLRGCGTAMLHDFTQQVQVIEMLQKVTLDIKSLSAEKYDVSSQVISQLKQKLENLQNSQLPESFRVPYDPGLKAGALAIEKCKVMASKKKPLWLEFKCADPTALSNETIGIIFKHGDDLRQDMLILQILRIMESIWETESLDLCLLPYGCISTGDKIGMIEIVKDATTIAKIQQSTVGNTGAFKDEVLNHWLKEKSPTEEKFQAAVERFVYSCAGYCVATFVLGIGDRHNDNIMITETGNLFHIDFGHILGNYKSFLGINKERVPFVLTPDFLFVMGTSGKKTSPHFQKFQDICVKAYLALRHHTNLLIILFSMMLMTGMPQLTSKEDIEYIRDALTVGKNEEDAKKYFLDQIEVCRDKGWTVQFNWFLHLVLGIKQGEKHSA
Chain of P110β (P42338 whole entry, canonical isoform): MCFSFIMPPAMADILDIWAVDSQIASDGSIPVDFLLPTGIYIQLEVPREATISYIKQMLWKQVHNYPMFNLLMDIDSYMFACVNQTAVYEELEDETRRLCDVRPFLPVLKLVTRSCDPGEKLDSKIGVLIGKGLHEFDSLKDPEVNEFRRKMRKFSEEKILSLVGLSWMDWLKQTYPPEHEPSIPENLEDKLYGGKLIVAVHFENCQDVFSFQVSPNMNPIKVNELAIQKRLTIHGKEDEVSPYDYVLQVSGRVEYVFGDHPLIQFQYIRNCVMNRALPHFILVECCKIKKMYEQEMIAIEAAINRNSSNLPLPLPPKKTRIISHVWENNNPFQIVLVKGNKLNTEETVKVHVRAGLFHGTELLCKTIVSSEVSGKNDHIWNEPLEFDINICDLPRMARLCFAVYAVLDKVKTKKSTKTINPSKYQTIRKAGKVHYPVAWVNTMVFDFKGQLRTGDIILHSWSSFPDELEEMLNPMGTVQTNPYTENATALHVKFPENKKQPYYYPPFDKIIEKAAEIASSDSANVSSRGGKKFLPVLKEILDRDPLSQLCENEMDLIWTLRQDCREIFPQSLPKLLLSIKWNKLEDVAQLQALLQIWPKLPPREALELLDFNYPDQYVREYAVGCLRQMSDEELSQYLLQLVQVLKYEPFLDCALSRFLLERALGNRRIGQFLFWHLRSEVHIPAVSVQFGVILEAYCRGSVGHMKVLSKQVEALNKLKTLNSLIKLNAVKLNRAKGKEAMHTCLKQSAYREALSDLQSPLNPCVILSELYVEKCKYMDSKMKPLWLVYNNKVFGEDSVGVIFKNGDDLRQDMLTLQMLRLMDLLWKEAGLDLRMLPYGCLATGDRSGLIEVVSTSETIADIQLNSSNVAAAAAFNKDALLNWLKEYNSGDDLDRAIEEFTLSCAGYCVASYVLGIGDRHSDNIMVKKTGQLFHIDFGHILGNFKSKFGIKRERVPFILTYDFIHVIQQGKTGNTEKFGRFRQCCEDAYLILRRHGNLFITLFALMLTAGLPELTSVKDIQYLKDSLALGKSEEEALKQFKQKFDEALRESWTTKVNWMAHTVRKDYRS
Chain of P110β (P27986 whole entry partner, canonical isoform): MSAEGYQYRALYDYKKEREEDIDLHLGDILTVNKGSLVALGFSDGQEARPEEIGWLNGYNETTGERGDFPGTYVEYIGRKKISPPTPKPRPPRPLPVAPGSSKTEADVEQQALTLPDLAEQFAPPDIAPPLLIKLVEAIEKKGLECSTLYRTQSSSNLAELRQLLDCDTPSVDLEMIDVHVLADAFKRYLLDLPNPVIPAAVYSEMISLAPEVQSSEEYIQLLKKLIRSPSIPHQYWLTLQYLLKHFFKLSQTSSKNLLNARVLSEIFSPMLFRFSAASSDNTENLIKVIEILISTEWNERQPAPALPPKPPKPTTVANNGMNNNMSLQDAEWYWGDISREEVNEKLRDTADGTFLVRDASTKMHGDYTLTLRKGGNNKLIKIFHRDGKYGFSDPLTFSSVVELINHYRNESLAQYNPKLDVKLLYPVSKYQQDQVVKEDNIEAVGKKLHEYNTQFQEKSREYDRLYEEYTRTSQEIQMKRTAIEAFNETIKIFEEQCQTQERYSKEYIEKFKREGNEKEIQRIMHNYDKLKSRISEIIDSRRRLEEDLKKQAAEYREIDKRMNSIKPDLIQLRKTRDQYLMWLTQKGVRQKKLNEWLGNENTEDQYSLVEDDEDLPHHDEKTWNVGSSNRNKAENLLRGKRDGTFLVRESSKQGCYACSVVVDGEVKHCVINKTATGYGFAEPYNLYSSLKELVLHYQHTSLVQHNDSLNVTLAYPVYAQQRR
Chain of P110 δ/Pi3K δ (O00329 whole entry, canonical isoform): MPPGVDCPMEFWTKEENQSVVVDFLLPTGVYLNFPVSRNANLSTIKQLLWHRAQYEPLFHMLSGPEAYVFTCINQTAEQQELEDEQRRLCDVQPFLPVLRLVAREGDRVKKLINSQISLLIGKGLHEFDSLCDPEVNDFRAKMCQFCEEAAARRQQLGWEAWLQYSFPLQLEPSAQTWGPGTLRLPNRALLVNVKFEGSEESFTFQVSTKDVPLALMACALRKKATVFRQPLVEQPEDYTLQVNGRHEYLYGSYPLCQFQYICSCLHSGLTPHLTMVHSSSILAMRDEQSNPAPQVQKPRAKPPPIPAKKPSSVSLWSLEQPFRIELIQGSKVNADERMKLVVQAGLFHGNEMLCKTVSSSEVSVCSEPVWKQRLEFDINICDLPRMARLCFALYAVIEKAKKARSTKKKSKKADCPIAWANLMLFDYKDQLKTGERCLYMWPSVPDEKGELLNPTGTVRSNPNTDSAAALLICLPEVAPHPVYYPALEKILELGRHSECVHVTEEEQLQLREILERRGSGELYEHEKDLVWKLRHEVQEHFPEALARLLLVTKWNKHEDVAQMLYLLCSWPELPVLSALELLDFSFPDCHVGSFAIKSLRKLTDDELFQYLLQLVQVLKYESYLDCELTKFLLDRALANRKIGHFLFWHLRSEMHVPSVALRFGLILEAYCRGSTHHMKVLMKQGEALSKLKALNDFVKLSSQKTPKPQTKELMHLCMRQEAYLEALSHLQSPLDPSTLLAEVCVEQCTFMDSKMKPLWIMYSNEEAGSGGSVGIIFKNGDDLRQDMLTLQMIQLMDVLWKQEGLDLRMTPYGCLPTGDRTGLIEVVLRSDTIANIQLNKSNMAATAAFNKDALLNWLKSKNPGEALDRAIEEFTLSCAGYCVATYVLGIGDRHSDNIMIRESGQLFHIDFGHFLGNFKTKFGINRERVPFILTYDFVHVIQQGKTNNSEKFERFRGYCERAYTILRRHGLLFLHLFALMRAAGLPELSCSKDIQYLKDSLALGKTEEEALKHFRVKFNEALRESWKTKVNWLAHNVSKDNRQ
Chain of P110 δ/Pi3K δ (P27986 whole entry partner, canonical isoform): as the sequence (P27986 whole entry partner, canonical isoform) above
Chain of P110α (P42336 whole entry, canonical isoform): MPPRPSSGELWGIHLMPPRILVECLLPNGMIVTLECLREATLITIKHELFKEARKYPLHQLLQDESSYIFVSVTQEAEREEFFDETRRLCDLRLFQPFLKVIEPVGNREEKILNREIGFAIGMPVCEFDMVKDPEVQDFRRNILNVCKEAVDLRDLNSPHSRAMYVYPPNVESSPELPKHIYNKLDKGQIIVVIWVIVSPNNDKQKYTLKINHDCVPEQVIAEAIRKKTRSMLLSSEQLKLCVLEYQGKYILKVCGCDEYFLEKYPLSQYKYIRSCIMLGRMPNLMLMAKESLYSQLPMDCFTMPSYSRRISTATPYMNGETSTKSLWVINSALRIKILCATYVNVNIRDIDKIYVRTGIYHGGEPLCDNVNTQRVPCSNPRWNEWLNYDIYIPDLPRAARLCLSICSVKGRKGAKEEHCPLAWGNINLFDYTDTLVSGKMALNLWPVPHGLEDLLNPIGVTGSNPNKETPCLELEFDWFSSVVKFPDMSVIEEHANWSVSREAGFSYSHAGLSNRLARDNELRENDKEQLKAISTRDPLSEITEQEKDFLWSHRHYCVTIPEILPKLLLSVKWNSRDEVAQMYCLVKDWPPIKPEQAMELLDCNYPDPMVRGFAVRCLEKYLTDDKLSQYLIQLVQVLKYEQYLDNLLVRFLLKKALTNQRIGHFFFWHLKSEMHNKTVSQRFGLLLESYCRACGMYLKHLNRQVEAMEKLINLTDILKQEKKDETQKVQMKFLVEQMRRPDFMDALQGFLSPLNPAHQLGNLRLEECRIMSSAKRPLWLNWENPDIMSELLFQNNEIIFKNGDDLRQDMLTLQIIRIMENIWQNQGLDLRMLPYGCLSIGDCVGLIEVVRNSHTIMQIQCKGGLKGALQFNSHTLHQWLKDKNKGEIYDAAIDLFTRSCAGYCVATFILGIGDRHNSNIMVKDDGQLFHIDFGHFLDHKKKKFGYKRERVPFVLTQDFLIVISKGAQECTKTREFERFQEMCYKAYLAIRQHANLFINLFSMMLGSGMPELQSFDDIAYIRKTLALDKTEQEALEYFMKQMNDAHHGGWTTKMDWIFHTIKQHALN
Chain of P110α (P27986 whole entry partner, canonical isoform): as the sequence (P27986 whole entry partner, canonical isoform) above

SMILES	inhibition (P110 δ/Pi3K δ)	IC50 (P110 δ/Pi3K δ; read-out: P110 δ/ Pi3K δ IC 50 nM)	inhibition at 1 µM (P110α)	inhibition at 1 µM (P110γ)	melting point	inhibition at 1 µM (P110β)	inhibition at 1 µM (P110 δ/Pi3K δ)	IC50 (P110 δ/Pi3K δ; [1])
CC(c1oc2ccccc2c(=O)c1-c1ccccc1)n1nc(-c2cccc(O)c2)c2c(N)ncnc21 (stereo not shown) [Example 42, 2-(1-(4-Amino-3-(3-hydroxyphenyl)-1H-pyrazolo[3,4-d]pyrimidin-1-yl)ethyl)-3-phenyl-4H-chromen-4-one]			< 25%	< 25%	212 to 216 °C	25 to 50%	50 to 100%	< 250 nM
Nc1ncnc2c1c(-c1cc(O)cc(F)c1)nn2Cc1oc2ccccc2c(=O)c1-c1cccc(F)c1 [Example 68, 2-((4-amino-3-(3-fluoro-5-hydroxyphenyl)-1H-pyrazolo[3,4-d]pyrimidin-1-yl)methyl)-3-(3-fluorophenyl)-4H-chromen-4-one]			< 25%	< 25%	235 to 237 °C	25 to 50%	50 to 100%	< 250 nM

More lines, now with the values ahead:

inhibition (P110 δ/Pi3K δ)	IC50 (P110 δ/Pi3K δ; read-out: P110 δ/ Pi3K δ IC 50 nM)	inhibition at 1 µM (P110α)	inhibition at 1 µM (P110γ)	melting point	inhibition at 1 µM (P110β)	inhibition at 1 µM (P110 δ/Pi3K δ)	IC50 (P110 δ/Pi3K δ; [1])	SMILES
50 to 100%	< 250 nM	< 25%	25 to 50%	214 to 217 °C	25 to 50%			Cc1n[nH]c2cc(-c3nn(C(C)c4oc5ccccc5c(=O)c4-c4cccc(F)c4)c4ncnc(N)c34)ccc12 (stereo not shown) [Example 79, 2-(1-(4-amino-3-(3-methyl-1H-indazol-6-yl)-1H-pyrazolo[3,4-d]pyrimidin-1-yl)ethyl)-3-(3-fluorophenyl)-4H-chromen-4-one]
50 to 100%		< 25%	50 to 100%	269 to 272 °C	< 25%			Cc1c[nH]c2cc(-c3nn(C(C)c4oc5ccccc5c(=O)c4-c4cccc(F)c4)c4ncnc(N)c34)ccc12 (stereo not shown) [Example 111, 2-(1-(4-amino-3-(3-methyl-1H-indol-6-yl)-1H-pyrazolo[3,4-d]pyrimidin-1-yl)ethyl)-3-(3-fluorophenyl)-4H-chromen-4-one]
50 to 100%		< 25%	25 to 50%	238 to 241 °C	< 25%			CC(c1oc2ccccc2c(=O)c1-c1cccc(F)c1)n1nc(-c2ccc3c(c2)CCO3)c2c(N)ncnc21 (stereo not shown) [Example 109, 2-(1-(4-amino-3-(2,3-dihydrobenzofuran-5-yl)-1H-pyrazolo[3,4-d]pyrimidin-1-yl)ethyl)-3-(3-fluorophenyl)-4H-chromen-4-one]
